Results reported in PMC9575645 (Signal Transduction and Targeted Therapy, 2022).
Like-named read-outs stand apart in the source and are kept apart here.

Legend:
[1] = tested on: proinflammatory cytokines; experiment: Proinflammatory cytokines in SARS-CoV-2-infected Vero E6 cells (RT-qPCR, ELISA); type: cell-based, African green monkey; details: 20 μM
IAV HA and M2 proteins = type: cell-based, Influenza A virus
lipid droplets (LDs) = experiment: BODIPY lipid droplet immunofluorescence in IAV-infected A549 cells; type: cell-based, human; details: MOI = 1 FFU
Procedure: To characterize the dynamics of LD formation, apoptotic and necroptotic cells, and virus infectivity, an IFA was performed with the […], MDCK, Caco-2, Vero E6, MA104, MARC-145, LLC-PK, and HRT-18G cells, infected with or without each virus, and treated with vehicles or chemicals at the different time points (Table S3), or transfected with siRNA or scrambled siRNA as described above.^ 16^,27^,28 Briefly, cells were prepared in 8-well chamber slides infected with IAV, SARS-CoV-2, BCoV, PEDV, RVA, PRRSV, or PSaV at an MOI of 1 (IAV), or MOI of 0.1 (SARS-CoV-2, BCoV, PEDV, RVA, PRRSV, or PSaV) and treated with or without chemicals. […] Subsequently, cells were washed thrice with PBS (pH 7.4) and mounted with SlowFade Gold antifade reagent containing 1 × DAPI solution (Molecular Probes) for nucleus staining, observed with a LSM 800 confocal microscope, and analysed using Zen Blue Software 2.6 (Carl Zeiss; Jena, Germany).
The number and size of intracellular LDs were measured as described previously.^28 Briefly, four images were taken of each sample and converted into a pixel unit, and the data were processed and quantified using Adobe Photoshop CS6. […] The results were expressed as relative values, where the average number and size of pixels of positive color in virus-infected groups were normalized to those of the mock-treated, mock-infected control.

SARS-CoV-2 (KCDC03) = experiment: In vitro antiviral activity against SARS-CoV-2 in Vero E6 cells (CCIF viral yield, RT-qPCR); type: cell-based; details: for SI (CC50/IC50) / IC50: SARS-CoV-2 (KCDC03); for IC50: Vero E6 cells; for virus replication (genome copy number, infectious progeny): SARS-CoV-2-infected Vero E6, 20 µM at 18 hpi
[2] = In vivo toxicity in hamsters (body weight, gross and histopathological organ changes)
Procedure: Three groups of 3 hamsters were treated intraperitoneally with 20, 40, and 80 mg kg^-1 d^-1 of atglistatin prepared in a 100 μL vehicle [50% PEG400 in water (vol/vol)] Bid with a 12 h interval for four and a half consecutive days, respectively (Table S10). One group of 3 control anesthetized hamsters was administered intraperitoneally with 100 μL vehicle Bid with a 12 h interval for four and a half consecutive days (Table S10).
Histopathological changes in lungs, liver, kidney, heart, and spleen from the experimental mice or hamsters in each experimental group were determined as described elsewhere.^35 Briefly, each sample from the mice or hamsters in each experimental group was fixed in sufficient 10% neutral formalin at 20°C for 3-4 days, washed in tap water, then trimmed, and thereafter processed in the automatic embedding machine for the dehydration and paraffin embedment. Tissue sections, prepared on slides at a thickness of 3 μm by a microtome, were used for hematoxylin and eosin (H&E) staining or IHC as described below. H&E stained sections were observed under light microscopy. The morphological changes to lung, liver, kidney, heart, and spleen tissues were reviewed in a blinded manner as previous described.^35

[3] = In vivo toxicity in mice (body weight, gross and histopathological organ changes); details: for gross and histopathological changes in major organs (liver, lung, kidney, heart, spleen): 0.1, 1, or 10 mg kg^-1 d^-1 Bid for 4 consecutive days
SARS-CoV-2 KCDC03 strain = type: in vivo, Syrian hamsters
[4] = tested on: Bovine coronavirus (KWD20); experiment: In vitro antiviral activity against BCoV in HRT-18G cells (CCIF viral yield); type: cell-based; details: for IC50: HRT-18G cells
Procedure: Cells were grown in 6- or 12-well plates or 8-well chamber slides to the desired confluency and then washed twice with phosphate-buffered saline (PBS, pH 7.4). They were then mock-inoculated with medium only or virus-inoculated with various multiplicities of infection (MOI): MOI of 0.01 or 1 FFU/cell for IAV, and MOI of 0.01 or 0.1 FFU/cell for SARS-CoV-2, BCoV, PEDV, PRRSV, and PSaV. Thereafter, each inoculum was absorbed for 1 h, and the cells were washed twice with PBS (pH 7.4). As shown in Supplementary Table 4, further treatments and incubations varied dependent on the virus species used. Cells treated with PKA inhibitor H89 (5 μM or 50 μM concentration) or vehicle-treated immediately after absorption of IAV at an MOI of 1 FFU or SARS-CoV-2 at an MOI of 0.1 FFU were incubated for 24 and 36 h, respectively, and each cell lysate was used for the detection of HSL and pHSL by western blot analysis as described below. Cells treated with lipase inhibitors at the median incubation time of IAV or SARS-CoV-2 as described in the above condition were supplemented with LA, OA, or PA at 100 µM concentration and left incubation for further median incubation time. The cells were used to assess levels of intracellular TAGs, cholesterol, FFAs, glycerol, FAO, proinflammatory cytokines as well as viral genome copy numbers and virus titers as described below and in Supplementary Information.
To determine the antiviral effects of chemicals, serial 10-fold dilutions of each cell culture supernatant after three cycles of freezing and thawing cycles were prepared in appropriate medium supplemented with 100 U/mL penicillin and 100 μg/mL streptomycin as described above. To determine the viral infectivity titer in lung tissues from the hamsters challenged with or without SARS-CoV-2, or administered with or without inhibitors as described above, aseptically sampled lungs from five hamsters per group at day five post-virus infection were harvested. Cleared supernatants from lung tissue as produced from IAV-infected mice above were serially tenfold-diluted with virus growth medium. […] The cells were washed twice with PBS (pH 8.0), mounted with 60% glycerol, and observed byr inverted fluorescence microscopy. The number of cells showing a viral antigen-positive signal at the endpoint dilution were counted. IC50 was calculated using GraphPad Prism software version 8.4.2. […] CC50 data from the MTT assay and IC50 from the IF assay were both calculated using GraphPad Prism software version 8.4.2.

[5] = mouse, in vivo, ip

CN(C)C(=O)Nc1cccc(-c2ccc(N(C)C)cc2)c1 [Atglistatin]
levels of TNF-α, IL-6, and MCP-1 [1]: markedly reduced | palmitoylation of IAV HA and M2 proteins (IAV HA and M2 proteins): significantly inhibited | intracellular LDs (BODIPY) (lipid droplets (LDs)): Retention of LDs | SI (CC50/IC50) (SARS-CoV-2 (KCDC03)): 154 | IC50 (SARS-CoV-2 (KCDC03)): 1.47 ± 0.12 µM | virus replication (genome copy number, infectious progeny) (SARS-CoV-2 (KCDC03)): inhibiting the replication | toxicity, including body weight loss ([2]; 80 mg kg^-1 d^-1 atglistatin and 2.5 mg kg^-1 d^-1 remdesivir, singly or in combination): no toxicity | gross and histopathological changes in major organs (liver, lung, kidney, heart, spleen) ([2]; 20, 40, or 80 mg kg^-1 d^-1 Bid for 4.5 consecutive days): no gross and histopathological changes | overt signs of toxicity, including loss of body weight ([2]; intraperitoneal 80 mg kg^-1 d^-1): did not induce any overt signs of toxicity | gross and histopathological changes in major organs (liver, lung, kidney, heart, spleen) [3]: no gross and histopathological changes | overt signs of toxicity, including loss of body weight ([3]; intraperitoneal 10 mg kg^-1 d^-1): did not induce any overt signs of toxicity | gross lung lesions (SARS-CoV-2 KCDC03 strain; […], different concentrations (20, 40, 80 mg kg^-1 d^-1)): improved gross lung lesions in a dose-dependent manner | FFA and glycerol release from LDs in lungs (SARS-CoV-2 KCDC03 strain; hamster, in vivo): inhibition of FFA and glycerol release | IFN-α and IFN-β production (SARS-CoV-2 KCDC03 strain; hamster, in vivo): no effect | levels of TNF-α, IL-6, and MCP-1 (SARS-CoV-2 KCDC03 strain; hamster, in vivo): reduced | reduction in lung lesions (SARS-CoV-2 KCDC03 strain; hamster, in vivo): 72% | SI (CC50/IC50) [4]: 152 | IC50 [4]: 1.2 ± 0.04 µM

COc1nn(-c2ccc(NC(=O)OCc3ccccc3)c(C)c2)c(=O)o1 [CAY10499]
levels of TNF-α, IL-6, and MCP-1 [1]: markedly reduced | palmitoylation of IAV HA and M2 proteins (IAV HA and M2 proteins): significantly inhibited | intracellular LDs (BODIPY) (lipid droplets (LDs)): Retention of LDs | overt signs of toxicity, including loss of body weight [5]: did not induce any overt signs of toxicity | SI (CC50/IC50) (SARS-CoV-2 (KCDC03)): 62 | IC50 (SARS-CoV-2 (KCDC03)): 1.54 ± 0.18 µM | virus replication (genome copy number, infectious progeny) (SARS-CoV-2 (KCDC03)): inhibiting the replication | gross and histopathological changes in major organs (liver, lung, kidney, heart, spleen) [3]: no gross and histopathological changes | SI (CC50/IC50) [4]: 14 | IC50 [4]: 7.3 ± 0.52 µM
